# Test results: patent US6221914A, “Sulfonamide bridging compounds that inhibit tryptase activity” (Array Biopharma Inc., priority 1998, dated 2001)
# Experiments:
# Assay type in all cases: biochemical
# [1] = biological target: Human lung tryptase; assay: Ki determination, human lung tryptase (Tosyl-Gly-Pro-Arg-pNA substrate); settings: 50 mM Tris-HCl pH 8.0, 37° C., 1 nM tryptase, 320 μM GPR-pNA; read-out: Experimentally Determined Ki, Tryptase
# Procedure: (§1) Protease inhibition was assayed according to published procedures with minor modifications using various proteases and specific chromogenic peptide p-nitroanilide substrates. Assays were performed in Costar ultra-low cluster 96-well microtiter plate (Costar Corning Corp., Cambridge Mass.). Each protease was incubated with various concentrations of the test compound for 15 min. at 37° C. or as otherwise indicated, in specific assay buffer, and the residual activity was then measured by addition of the substrate. p-Nitroaniline produced by the proteolysis was determined by measuring the change in absorbance at 405 nm on a SpectraMAX 340 plate reader (Molecular devices, Sunnyvale, Calif.).
# (§2) 1. The inhibition constant, Ki is calculated from individual data points using the equation for a tight-binding inhibitor (See Beith, "Proteinase Inhibitors-Proceedings of 2nd Int. Res. Conference", Fritz, et al. eds, New York, p.4463-4469 (1974)):
# (§3) vi /vo [((Ki '+[I]+[E]o)^2 -4 [I]o
# (§4) [E]o)^1/2 (Ki '+[I]o -[E]o)]/2[E]o
# (§5) where Ki ' is apparent inhibition constant; vi and vo are the inhibited and uninhibited rates, respectively; [I]o and [E]o are the total concentrations of inhibitor and enzyme, respectively.
# (§6) [note: [E]o is determined by active site titration of enzyme]
# (§7) The Ki values are obtained by correcting Ki ' values for the effect of substrate concentration according to: [formula]
# (§8) 2. Other inhibition data (Ki >>[E]o), the Ki is calculated from using the equations for a competitive inhibitor: [formula]
# Human lung tryptase purchased from Cortex Biochem (San Leandro, Calif.) was purified further on a Superdex 200 gel-filtration column. The active-site concentration of the enzyme was determined by spectrophotometric titration with 4-nitrophenyl 4'-guanidinobenzoate according to Schwartz, et al., J. Immunol., 114, 2304-2311 (1990). Tryptase activity was measured according to the procedures of Schwartz, et al., J. Biol. Chem., 261, 7372-7379 (1986) (See also, Schwartz, L. B., Methods In Enzymology, 244, 88 (1994)) with minor modifications, using Tosyl-Gly-Pro-Arg-p-nitroanilide ("GPR-pNA", Sigma Chemical Co., St. Louis, Mo., T-1637) as a chromogenic substrate. The reaction was performed in 50 mM Tris-HCl, pH 8.0, containing 150 mM NaCl and 0.02% Triton X-100 at 37° C. in Costar ultra-low cluster 96-well microtiter plates (Costar Corning Corp., Cambridge, Mass.). The amount of pNA produced by tryptase was determined by measuring the change in absorbance at 405 nm on a SpectraMAX 340 plate reader (Molecular devices, Sunnyvale, Calif.). The Km for the substrate was determined by Lineweaver-Burk analysis from initial velocities of substrate hydrolysis. The inhibition assay was carried out in a total volume of 200 μL. Tryptase (30 μL- final concentration 1 nM) was incubated with various concentrations of sample compound (50 μL) to be tested in the above assay buffer for 5 min. The reaction was started by the addition of substrate GPR-pNA (40 μL-final concentration 320 μM), and the residual activity was measured after 15 min. of incubation. The inhibition constant, Ki, was determined by fitting the inhibition data to a two-site competitive binding equation using data analysis program GraphPad PRISM (GraphPad Software, Inc., San Diego, Calif.).
# (§9) The inhibition constant (Ki) of the test compounds against each proteolytic enzyme was determined according to Zitnik et al., Biochem. Biophys. Res. Commun. 232, 687-697 (1997)).
# [2] = biological target: T1, Human plasma thrombin (Homo sapiens, UniProt P00734); assay: Ki determination, human plasma thrombin (H-D-Phe-Pip-Arg-pNA); settings: 50 mM Tris-HCl, pH 8.3, 100 mM NaCl, 1% BSA; read-out: Experimentally Determined Ki, Thrombin
# T1 construct: from tissue; host or cells: human plasma
# Procedure: as §1, §2, §3, §4, §5, §6, §7, §8
# Human plasma thrombin activity was determined by using H-D-Phe-Pip-Arg-pNA in 50 mM Tris-HCl, pH 8.3, 100 mM NaCl, 1% BSA (See Lottenberg, et al. Meth. Enzymol. 80, 341-361 (1981)).
# as §9
# [3] = biological target: T2, Bovine Pancreatic Chymotrypsin (Bos taurus, UniProt P00766); assay: Ki determination, bovine pancreatic chymotrypsin (N-Suc-Ala-Ala-Pro-Phe-pNA); settings: 100 mM Tris-HCl, pH 7.8, 10 mM CaCl2; read-out: Experimentally Determined Ki, Chymotrypsin
# T2 construct: from tissue; host or cells: bovine pancreas
# Procedure: as §1, §2, §3, §4, §5, §6, §7, §8
# Bovine Pancreatic Chymotrypsin activity was determined by using N-Suc-Ala-Ala-Pro-Phe-pNA in 100 mM Tris-HCl, pH 7.8, 10 mM CaCl2 (See Delmar, et al., J. Biochem. 85, 157-162 (1979)).
# as §9
Ki [1] [nM],Ki [2] [µM],Ki [3] [µM],Structure (SMILES)
20,> 100,> 100,"N=C(N)c1cccc(C(=O)NCc2ccc(OCCCOc3ccc(CNC(=O)c4cccc(C(=N)N)c4)cc3)cc2)c1 [Example 63, 1,3-Bis-{4-[(3-carbamimidoyl-benzoylamino)-methyl]-phenoxy}-propane]"
10,> 100,> 100,"N=C(N)c1cccc(C(=O)NCc2ccc(OCCCCOc3ccc(CNC(=O)c4cccc(C(=N)N)c4)cc3)cc2)c1 [Example 61, 1,4-Bis-{4-[(3-carbamimidoyl-benzenecarbonylamino)-methyl]-phenoxy}-butane]"
10,> 100,> 100,"N=C(N)c1cccc(C(=O)NCc2ccc(OCCCCCCOc3ccc(CNC(=O)c4cccc(C(=N)N)c4)cc3)cc2)c1 [Example 57, 1,6-Bis-{4-[(3-carbamimidoyl-benzenecarbonylamino)-methyl]-phenoxy}-hexane]"
3,> 100,> 100,"N=C(N)c1ccc(C(=O)NCc2ccc(OCCCOc3ccc(CNS(=O)(=O)c4cccc(C(=N)N)c4)cc3)cc2)cc1 [Example 86, 4-Carbamimidoyl-N-[4-(3-{4-[(3-carbamimidoyl-benzenesulfonylamino)-methyl]-phenoxy}-propoxy)-benzyl]-benzamide]"
12,> 100,40,"N=C(N)c1ccc2sc(C(=O)NCc3ccc(OCCCOc4ccc(CNC(=O)c5cc6cc(C(=N)N)ccc6s5)cc4)cc3)cc2c1 [Example 117, 1,3-Bis-{4-[(5-carbamidoyl-2-benzthiophenyl-carbamido)-methyl]-phenoxy}-propane]"
3,> 100,> 100,"N=C(N)c1ccc(C(=O)NCc2ccc(OCCCOc3ccc(CNC(=O)c4cccc(C(=N)N)c4)cc3)cc2)cc1 [Example 85, 4-Carbamimidoyl-N-[4-(3-{4-[(3-carbamimidoyl-benzoylamino)-methyl]-phenoxy}-propoxy)-benzyl]-benzamide]"
350,> 100,> 100,"N=C(N)c1cccc(C(=O)NCc2ccc(OCCOc3ccc(CNC(=O)c4cccc(C(=N)N)c4)cc3)cc2)c1 [Example 65, 1,2-Bis-{4-[(3-carbamimidoyl-benzoylamino)-methyl]-phenoxy}-ethane]"
20,> 100,> 100,"CN(Cc1ccc(OCCCOc2ccc(CN(C)S(=O)(=O)c3cccc(C(=N)N)c3)cc2)cc1)S(=O)(=O)c1cccc(C(=N)N)c1 [Example 68, 1,3-Bis-{4-[(3-carbamimidoyl-benzenesulfonyl-[N-methyl]-amino)-methyl]-phenoxy}-propane]"
20,> 100,> 100,"N=C(N)c1cccc(S(=O)(=O)NCc2ccc(OCCCOc3ccc(CNS(=O)(=O)c4cccc(C(=N)N)c4)cc3)cc2)c1 [Example 49, 3,1-Bis-{4-[(3-carbamimidoyl-benzenesulfonylamino)-methyl]-phenoxy}-propane]"
0.5,> 100,> 100,"N=C(N)c1ccc(C(=O)NCc2ccc(OCCCOc3ccc(CNC(=O)c4ccc(C(=N)N)cc4)cc3)cc2)cc1 [Example 62, 1,3-Bis-{4-[(4-carbamimidoyl-benzoylamino)-methyl]-phenoxy}-propane]"
110,> 100,20,"N=C(N)c1cccc(S(=O)(=O)NCc2ccc(OCCCCCCOc3ccc(CNS(=O)(=O)c4cccc(C(=N)N)c4)cc3)cc2)c1 [Example 43, 1,6-Bis-{4-[(3-carbamimidoyl-benzenesulfonylamino)-methyl]-phenoxy}-hexane]"
30,> 100,> 100,"N=C(N)c1cccc(S(=O)(=O)NCc2ccc(OCCOc3ccc(CNS(=O)(=O)c4cccc(C(=N)N)c4)cc3)cc2)c1 [Example 51, 1,2-Bis-{4-[(3-carbamimidoyl-benzenesulfonylamino)-methyl]-phenoxy}-ethane]"

# More lines, now with the values behind:
Structure (SMILES),Ki [1] [nM],Ki [2] [µM],Ki [3] [µM]
"N=C(N)c1ccc(C(=O)NCc2ccc(COCc3ccc(CNC(=O)c4ccc(C(=N)N)cc4)cc3)cc2)cc1 [Example 66, 1,3-Bis-{4-[(4-carbamimidoyl-benzenecarbonylamino)-methyl]-phenyl}-2-oxapropane]",380,> 100,> 100
"N=C(N)c1ccc(C(=O)NCc2cccc(OCCCCCOc3cccc(CNC(=O)c4ccc(C(=N)N)cc4)c3)c2)cc1 [Example 76, 1,5-Bis-{3-[(4-carbamimidoyl-benzenecarbonylamino)-methyl]-phenoxy}-pentane]",5,21,> 100
"N=C(N)c1ccc(C(=O)NCc2ccc(OCCCCCCCOc3ccc(CNC(=O)c4ccc(C(=N)N)cc4)cc3)cc2)cc1 [Example 58, 1,7-Bis-{4-[(4-carbamimidoyl-benzenecarbonylamino)-methyl]-phenoxy}-heptane]",1,> 100,> 100
"N=C(N)c1ccc(C(=O)NCc2ccc(OCCCOc3ccc(CNC(=O)c4ccc(CN)cc4)cc3)cc2)cc1 [Example 87, N-[4-(3-{4-[(4-Aminomethyl-benzoylamino)-methyl]-phenoxy}-propoxy)-benzyl]-4-carbamimidoyl-benzamide]",2,> 100,> 100
"N=C(N)c1ccc2[nH]c(CC(=O)NCc3ccc(OCCCOc4ccc(CNC(=O)Cc5nc6cc(C(=N)N)ccc6[nH]5)cc4)cc3)nc2c1 [Example 107, 2-(5-Carbamimidoyl-1H-benzoimidazol-2-yl)-N-{4,-[3-(4-{2-(5-carbamimidoyl-1H-benzoimidazol-2-yl)acetylaminol-methyl}-phenoxy)-propoxy]-benzyl}-acetamide]",12,> 100,26
"N=C(N)c1ccc2cc(C(=O)NCc3ccc(OCCOc4ccc(CNC(=O)c5ccc6cc(C(=N)N)ccc6c5)cc4)cc3)ccc2c1 [Example 100, 1,2-Bis-{4-[(6-carbamimidoylnaphthalene-2-carbonylamino)-methyl]-phenoxy}-ethane]",0.2,> 100,18
N=C(N)c1ccc2[nH]c(CC(=O)NCc3ccc(OCCCCOc4ccc(CNC(=O)Cc5nc6cc(C(=N)N)ccc6[nH]5)cc4)cc3)nc2c1 [Example 109],8,> 100,14.7
"N=C(N)c1ccc(C(=O)NCc2ccc(OCC3(COc4ccc(CNC(=O)c5ccc(C(=N)N)cc5)cc4)CCC3)cc2)cc1 [Example 93, 1,1-Bis-{4-[(4-carbamimidoyl-benzoyl-amino)-methyl]-phenoxy-methyl}-cyclobutane]",1,> 100,> 100
"N=C(N)c1ccc(C(=O)NCc2ccc(OCCOc3ccc(CNC(=O)c4ccc(C(=N)N)cc4)cc3)cc2)cc1 [Example 64, 1,2-Bis-{4-[(4-carbamimidoyl-benzoylamino)-methyl]-phenoxy}-ethane]",50,> 100,> 100
